Experimental data as given in ChEMBL document CHEMBL1121780, “Synthesis and antiarrhythmic activity of new benzofuran derivatives” (J Med Chem, 1981).
“And” between values parts separate entries of the source, which are not always exact repeats. Identical values can stand only once. The source made the active and inactive calls. The rule behind the calls is not given here.

Assays:
Canis familiaris [1] = species: Canis familiaris; assay: Activity against ouabain-induced ventricular arrhythmia was measured as percent of sinus rhythm recovery; Inactive; format: functional, organism-based; conditions: Canis lupus familiaris; Cardiac ventricle
[2] = Toxicity estimated in mouse as LD50 by intravenous administration; format: organism-based; conditions: in vivo
Canis familiaris [3] = assay: Activity against harris coronary ligation induced ventricular arrhythmia was measured as percent of initial sinus complexes after dose 5 mg/kg iv; format: functional, Canis lupus familiaris, Cardiac ventricle
Canis familiaris [4] = assay: Activity against harris coronary ligation induced ventricular arrhythmia was measured as percent of initial sinus complexes after dose 2 mg/kg, iv; format: functional, Canis lupus familiaris, Cardiac ventricle
Canis familiaris [5] = assay: Activity against harris coronary ligation induced ventricular arrhythmia was measured as percent of final sinus complexes after dose 20 mg/kg, po; format: functional, Canis lupus familiaris, Cardiac ventricle
Canis familiaris [6] = assay: Activity against harris coronary ligation induced ventricular arrhythmia was measured as percent of final sinus complexes after dose 2 mg/kg iv; format: functional, Canis lupus familiaris, Cardiac ventricle
Canis familiaris [7] = assay: Activity against harris coronary ligation induced ventricular arrhythmia was measured as percent of final sinus complexes after dose 5 mg/kg iv; format: functional, Canis lupus familiaris, Cardiac ventricle
Canis familiaris [8] = assay: (§1) Activity against harris coronary ligation induced ventricular arrhythmia was measured as percent of final sinus complexes after dose 12.5 mg/kg, po; format: functional, Canis lupus familiaris, Cardiac ventricle
Canis familiaris [9] = species: Canis familiaris; assay: Duration for the sinus rhythm recovery was measured; format: functional, Canis lupus familiaris
Canis familiaris [10] = assay: Activity against harris coronary ligation induced ventricular arrhythmia was measured as percent of final sinus complexes after dose 2 mg/kg, po; format: functional, Canis lupus familiaris, Cardiac ventricle
Canis familiaris [11] = assay: Activity against harris coronary ligation induced ventricular arrhythmia was measured as percent of initial sinus complexes after dose 2 mg/kg po; format: functional, Canis lupus familiaris, Cardiac ventricle
Canis familiaris [12] = assay: Activity against ouabain-induced ventricular arrhythmia was measured as percent of sinus rhythm recovery at dose of 2 mg/kg iv; format: functional, Canis lupus familiaris, Cardiac ventricle
Canis familiaris [13] = assay: as §1; format: functional, Canis lupus familiaris, Cardiac ventricle; remark: listed apart in the source
Canis familiaris [14] = assay: Activity against harris coronary ligation induced ventricaulr arrhythmia was measured as percent of initial sinus complexes after dose 12.5 mg/kg po; format: functional, Canis lupus familiaris
Canis familiaris [15] = species: Canis familiaris; assay: Duration for the antiarrhythmic activity was measured; format: functional, Canis lupus familiaris, Heart
Canis familiaris [16] = assay: Activity against ouabain-induced ventricular arrhythmia was measured as percent of sinus rhythm recovery at dose of 1 mg/kg iv; format: functional, Canis lupus familiaris, Cardiac ventricle
Canis familiaris [17] = assay: Activity against harris coronary ligation induced ventricular arrhythmia was measured as percent of initial sinus complexes after dose 2 mg/kg iv; format: functional, Canis lupus familiaris, Cardiac ventricle
[18] = Toxicity was estimated in mouse as LD50 by intravenous administration; LD50=1000 (40%); format: organism-based; conditions: in vivo
Canis familiaris [19] = assay: Activity against ouabain-induced ventricular arrhythmia was measured as percent of sinus rhythm recovery at dose of 4 mg/kg iv; format: functional, Canis lupus familiaris, Cardiac ventricle
Canis familiaris [20] = species: Canis familiaris; assay: Activity against ouabain-induced ventricular arrhythmia was measured as percent of sinus rhythm recovery; Estimated as too toxic to be tested; format: functional, organism-based; conditions: Canis lupus familiaris; Cardiac ventricle
Canis familiaris [21] = assay: Activity against harris coronary ligation induced ventricular arrhythmia was measured as percent of initial sinus complexes after dose 2 mg/kg, iv; Inactive; format: functional, organism-based; parameters: dose 2 mg/kg; conditions: Canis lupus familiaris; Cardiac ventricle; at 2 mg/kg
Canis familiaris [22] = assay: Activity against harris coronary ligation induced ventricular arrhythmia was measured as percent of initial sinus complexes after dose 5 mg/kg, iv; format: functional, Canis lupus familiaris, Cardiac ventricle
Canis familiaris [23] = assay: Activity against harris coronary ligation induced ventricular arrhythmia was measured as percent of final sinus complexes after dose 5 mg/kg, iv; format: functional, Canis lupus familiaris, Cardiac ventricle
Canis familiaris [24] = assay: Activity against harris coronary ligation induced ventricular arrhythmia was measured as percent of final sinus complexes after dose 2 mg/kg, iv; format: functional, Canis lupus familiaris, Cardiac ventricle
Canis familiaris [25] = assay: Activity against harris coronary ligation induced ventricular arrhythmia was measured as percent of initial sinus complexes after dose 12.5 mg/kg, po; format: functional, Canis lupus familiaris, Cardiac ventricle
Canis familiaris [26] = assay: Activity against harris coronary ligation induced ventricular arrhythmia was measured as percent of initial sinus complexes after dose 4 mg/kg iv; Inactive; format: functional, organism-based; parameters: dose 4 mg/kg; conditions: Canis lupus familiaris; Cardiac ventricle; at 4 mg/kg
Canis familiaris [27] = assay: Activity against harris coronary ligation induced ventricular arrhythmia was measured as percent of initial sinus complexes after dose mg/kg, iv=2; format: functional, Canis lupus familiaris, Cardiac ventricle
Canis familiaris [28] = assay: Activity against harris coronary ligation induced ventricular arrhythmia was measured as percent of final sinus complexes after dose mg/kg, iv=2; format: functional, Canis lupus familiaris, Cardiac ventricle
Canis familiaris [29] = assay: Activity against harris coronary ligation induced ventricular arrhythmia was measured as percent of initial sinus complexes after dose 1 mg/kg iv; Inactive; format: organism-based, Canis lupus familiaris, Cardiac ventricle; parameters: dose 1 mg/kg; conditions: dog, in vivo

Compound | SRR (Canis familiaris [1]) | LD50 [2] [mg/kg] | Duration (Canis familiaris [9]) [min] | other results
COC(=O)Nc1c(OCCN2CCCCC2)c(OC)c2occc2c1OC | inactive | 15 | – | –
CNC(=O)Nc1c(OCCN2CCCC2)c(OC)c2occc2c1OC [CAROCAINIDE] | – | 88 | 69 | ISC (Canis familiaris [3]): 18%; ISC (Canis familiaris [4]): 15%; FSC (Canis familiaris [5]): 100%; FSC (Canis familiaris [6]): 75%; FSC (Canis familiaris [7]): 100%; FSC (Canis familiaris [8]): 95%; FSC (Canis familiaris [10]): 100%; ISC (Canis familiaris [11]): 33%; SRR (Canis familiaris [12]): 100%; FSC (Canis familiaris [13]): 81%; ISC (Canis familiaris [14]): 19% and 12%
CNC(=O)Nc1c(OC)ccc(OC)c1OCCN1CCCCC1 | inactive | 135 | – | –
COc1c(NC(C)=O)c(OCCN2CCCCCCC2)c(OC)c2occc12 | – | 21 | >50 | FSC (Canis familiaris [6]): 17%; Duration (Canis familiaris [15]): <30 min; SRR (Canis familiaris [16]): 100%; ISC (Canis familiaris [17]): 5%
CCN(CC)CCOc1c(NC(C)=O)c(OC)c2ccoc2c1OC | inactive | 85 | – | –
COc1c(NC(C)=O)c(OCCN(C)C)c(OC)c2occc12 | inactive | 138 | – | –
COc1c(NC(C)=O)c(OCCNC2CCCCC2)c(OC)c2occc12 | – | 11.5 | <30 | SRR (Canis familiaris [16]): 50%
CNC(=O)Nc1c(OCCN2CCC2)c(OC)c2occc2c1OC | – | – | 10 | SRR (Canis familiaris [12]): 100%; LD50 [18]: 1000 mg/kg
CNC(=O)Nc1c(OCC(C)N2CCCCC2)c(OC)c2occc2c1OC (configuration not stated) | – | 36 | 60 | SRR (Canis familiaris [12]): 100%
COc1c(NC(C)=O)c(OCCN2CCCC2)c(OC)c2occc12 | – | 80 | <30 | SRR (Canis familiaris [19]): 33%
CCNC(=O)Nc1c(OCCN2CCCCC2)c(OC)c2occc2c1OC | – | 28 | 120 | FSC (Canis familiaris [6]): 90%; Duration (Canis familiaris [15]): <30 min; SRR (Canis familiaris [12]): 100%; ISC (Canis familiaris [17]): 25%
CCCCNC(=O)Nc1c(OCCN2CCCCC2)c(OC)c2occc2c1OC | inactive | 22 | – | –
CNC(=O)Nc1c(OCCCN(C)C)c(OC)c2occc2c1OC | inactive | 44 | – | –
CNC(=O)Nc1c(OCCCCN2CCCCC2)c(OC)c2occc2c1OC | – | 68 | <30 | SRR (Canis familiaris [19]): 100%
CNS(=O)(=O)Nc1c(OCCN2CCCCC2)c(OC)c2occc2c1OC | inactive | 39 | – | –
CN/C(S)=N/c1c(OCCN2CCCCC2)c(OC)c2occc2c1OC | inactive | 17 | – | –
COc1c(NC(=O)N(C)C)c(OCCN2CCCCC2)c(OC)c2occc12 | – | 25 | 60 | FSC (Canis familiaris [6]): 52%; SRR (Canis familiaris [19]): 50%; Duration (Canis familiaris [15]): 40 min; ISC (Canis familiaris [17]): 22%
COc1c(NC(N)=O)c(OCCN2CCCCC2)c(OC)c2occc12 | inactive | 40 | – | –
CNC(=O)Nc1cc2ccoc2cc1OCCN1CCCCC1 | inactive | 67 | – | –
CNC(=O)Nc1c(OC(C)CN2CCCCC2)c(OC)c2occc2c1OC (configuration not stated) | – | 23 | 15 | SRR (Canis familiaris [16]): 100%
CCOc1c(NC(=O)NC)c(OCCN2CCCCC2)c(OC)c2occc12 | – | 10 | – | SRR (Canis familiaris [20]): inactive
CNCCOc1c(NC(=O)NC)c(OC)c2ccoc2c1OC | inactive | 67 | – | –
CCOC(=O)Nc1c(OCCN2CCCCC2)c(OC)c2occc2c1OC | inactive | 13 | – | –
COc1c(NC(=O)Nc2ccccc2)c(OCCN2CCCCC2)c(OC)c2occc12 | inactive | 9 | – | –
CCN(CC)CCCOc1c(NC(=O)NC)c(OC)c2ccoc2c1OC | – | 76 | 15 | SRR (Canis familiaris [12]): 100%
CNC(=O)Nc1c(OCCN2CCCCCCC2)c(OC)c2occc2c1OC | – | 14 | 30 | ISC (Canis familiaris [21]): inactive; SRR (Canis familiaris [12]): 100%
CNC(=O)Nc1c(OCCCN2CCCC2)c(OC)c2occc2c1OC | – | 32 | >60 | ISC (Canis familiaris [22]): 0%; SRR (Canis familiaris [19]): 100%; Duration (Canis familiaris [15]): 20 min; FSC (Canis familiaris [23]): 9%

Compound | SRR (Canis familiaris [1]) | LD50 [2] [mg/kg] | Duration (Canis familiaris [9]) [min] | other results
CNC(=O)Nc1c(OCCN2CCCCCC2)c(OC)c2occc2c1OC | – | 31 | 95 | FSC (Canis familiaris [24]): 78%; ISC (Canis familiaris [25]): 5%; FSC (Canis familiaris [8]): 90%; SRR (Canis familiaris [12]): 100%; ISC (Canis familiaris [17]): 3%
CNC(=O)N(C)c1c(OCCN2CCCCC2)c(OC)c2occc2c1OC | – | 66 | <10 | SRR (Canis familiaris [12]): 100%
CCN(CC)CCOc1c(NC(=O)NC)c(OC)c2ccoc2c1OC | – | 74 | >120 | ISC (Canis familiaris [26]): inactive; SRR (Canis familiaris [12]): 100%
COc1c(NC(=O)C2CCCCC2)c(OCCN2CCCCC2)c(OC)c2occc12 | – | 7 | – | SRR (Canis familiaris [20]): Estimated as too toxic to be tested
COc1c(NC(=O)OC2CCCCC2)c(OCCN2CCCCC2)c(OC)c2occc12 | inactive | 15 | – | –
CNC(=O)Nc1c(OCCNC(C)C)c(OC)c2occc2c1OC | – | 49 | <30 | SRR (Canis familiaris [19]): 100%
CNC(=O)Nc1c(OCCCCN2CCCC2)c(OC)c2occc2c1OC | inactive | 36 | – | –
CNC(=O)Nc1c(OCCCN2CCCCC2)c(OC)c2occc2c1OC | – | 42.5 | >100 | ISC (Canis familiaris [21]): inactive; SRR (Canis familiaris [12]): 100%
COc1c(NC(C)=O)c(OCCCN2CCCCC2)c(OC)c2occc12 | inactive | 40.5 | – | –
COc1c(NC(C)=O)c(OCCN2CCCCCC2)c(OC)c2occc12 | inactive | 33 | – | –
COc1c(N)c(OCCN2CCCCC2)c(OC)c2occc12 | inactive | 21 | – | –
COc1c(NC(=O)NC(C)C)c(OCCN2CCCCC2)c(OC)c2occc12 | inactive | 25 | – | –
CCCN(CCC)CCOc1c(NC(=O)NC)c(OC)c2ccoc2c1OC | – | 52 | 45 | ISC (Canis familiaris [27]): 30%; FSC (Canis familiaris [28]): 37%; Duration (Canis familiaris [15]): 5 min; SRR (Canis familiaris [12]): 100%
CNCCOc1c(NC(C)=O)c(OC)c2ccoc2c1OC | inactive | 96 | – | –
COc1c(NC(=O)C(C)C)c(OCCN2CCCCC2)c(OC)c2occc12 | inactive | 78 | – | –
CNC(=O)Nc1c(OCCN2CCOCC2)c(OC)c2occc2c1OC | inactive | 100 | – | –
COc1c(NC(C)=O)c(OCCN2CCOCC2)c(OC)c2occc12 | inactive | 200 | – | –
CNC(=O)Nc1c(OC)c(OC)c2occc2c1OCCN1CCCCC1 | inactive | 200 | – | –
COc1c(NC(=O)NC2CCCCC2)c(OCCN2CCCCC2)c(OC)c2occc12 | inactive | 42 | – | –
COc1c(NC(=O)C(F)(F)F)c(OCCN2CCCCC2)c(OC)c2occc12 | inactive | 22 | – | –
COc1c(NC(=O)NC(C)(C)C)c(OCCN2CCCCC2)c(OC)c2occc12 | inactive | 11.5 | – | –
CCNCCOc1c(NC(C)=O)c(OC)c2ccoc2c1OC | inactive | 68 | – | –
CCCNC(=O)Nc1c(OCCN2CCCCC2)c(OC)c2occc2c1OC | inactive | 18.5 | – | –
CNC(=O)Nc1c(OCCNC2CCCCC2)c(OC)c2occc2c1OC | – | 9.5 | 120 | SRR (Canis familiaris [16]): 100%; ISC (Canis familiaris [29]): Not Active
COc1c(NC=O)c(OCCN2CCCCC2)c(OC)c2occc12 | – | 46 | 10 | SRR (Canis familiaris [19]): 100%
COc1c(NC(=O)c2ccccc2)c(OCCN2CCCCC2)c(OC)c2occc12 | – | 2.5 | – | SRR (Canis familiaris [20]): Estimated as too toxic to be tested
CNC(=O)Nc1c(OCCN2CCCCC2)c(OC)c2occc2c1OC(C)C | inactive | 11 | – | –
